Data from PubChem BioAssay AID248 (DTP/NCI, 2004).
Several values for one entry are separate records, joined by “and”; a condition that tells them apart may be missing. Identical values can stand only once. Inconclusive results and toxic doses are left out. No stated cut-off is given here; in the data, active means T/C of 150% or more; inactive means T/C below 125%.

Tested on: L1210 leukemia ip in BDF1 mice, survival T/C
Assay: NCI In Vivo Anticancer Drug Screen. Data for tumor model L1210 Leukemia (intraperitoneal) in B6D2F1 (BDF1) mice
Settings: endpoint: mean survival time, higher = longer survival
Procedure, shortened: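 Each compound was tested against a transplantable tumor grown in mice. The endpoint was survival, with treated animals benchmarked against vehicle controls as a simple ratio.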

[1] = dose: 50.0 mg/kg/injection, schedule: Q01DX001 (ip), vehicle: saline
[2] = dose: 100.0 mg/kg/injection, schedule: Q01DX001 (ip), vehicle: saline
[3] = dose: 200.0 mg/kg/injection, schedule: Q01DX001 (ip), vehicle: saline
[4] = dose: 400.0 mg/kg/injection, schedule: Q01DX001 (ip), vehicle: saline
[5] = dose: 100.0 mg/kg/injection, schedule: Q01DX009 (ip), vehicle: Klucel (hydroxypropylcellulose) (HPC)
[6] = dose: 200.0 mg/kg/injection, schedule: Q01DX009 (ip), vehicle: Klucel (hydroxypropylcellulose) (HPC)
[7] = dose: 400.0 mg/kg/injection, schedule: Q01DX009 (ip), vehicle: Klucel (hydroxypropylcellulose) (HPC)
[8] = dose: 100.0 mg/kg/injection, schedule: Q04DX002 (ip), vehicle: Klucel (hydroxypropylcellulose) (HPC)
[9] = dose: 200.0 mg/kg/injection, schedule: Q04DX002 (ip), vehicle: Klucel (hydroxypropylcellulose) (HPC)
[10] = dose: 400.0 mg/kg/injection, schedule: Q04DX002 (ip), vehicle: Klucel (hydroxypropylcellulose) (HPC)
[11] = dose: 100.0 mg/kg/injection, schedule: Q01DX001 (ip), vehicle: Klucel (hydroxypropylcellulose) (HPC)
[12] = dose: 200.0 mg/kg/injection, schedule: Q01DX001 (ip), vehicle: Klucel (hydroxypropylcellulose) (HPC)
[13] = dose: 100.0 mg/kg/injection, schedule: Q04DX003 (ip), vehicle: saline with Tween-80
[14] = dose: 200.0 mg/kg/injection, schedule: Q04DX003 (ip), vehicle: saline with Tween-80
[15] = dose: 100.0 mg/kg/injection, schedule: Q04DX003 (ip), vehicle: saline
[16] = dose: 200.0 mg/kg/injection, schedule: Q04DX003 (ip), vehicle: saline
[17] = dose: 400.0 mg/kg/injection, schedule: Q04DX003 (ip), vehicle: saline
[18] = dose: 100.0 mg/kg/injection, schedule: Q01DX009 (ip), vehicle: saline
[19] = dose: 200.0 mg/kg/injection, schedule: Q01DX009 (ip), vehicle: saline
[20] = dose: 400.0 mg/kg/injection, schedule: Q01DX009 (ip), vehicle: saline

Measured: T/C

Nc1nc(N)c2ncn(C3CC(O)C(CO)O3)c2n1 (stereo not drawn)
inactive: [1] 96 % of control | [2] 110 % of control | [3] 90 % of control | [4] 96 % of control

O=P(NC12CC3CC(CC(C3)C1)C2)(Oc1ccccc1Cl)Oc1ccccc1Cl
inactive: [5] 101 % of control | [6] 101 % of control | [7] 95 % of control

CSc1ccc(OC(=O)Nc2ccccc2[N+](=O)[O-])cc1C
inactive: [5] 109 % of control | [6] 94 % of control | [7] 92 % of control

CCN(CC)CCOc1ccc(C(=O)/C(=C/c2ccc(OC)cc2)c2ccccc2)cc1
inactive: dose: 100.0 mg/kg/injection, schedule: Q04DX003 (sc), vehicle: olive oil, sesame oil, peanut oil 100 % of control | dose: 200.0 mg/kg/injection, schedule: Q04DX003 (sc), vehicle: olive oil, sesame oil, peanut oil 96 % of control | dose: 400.0 mg/kg/injection, schedule: Q04DX003 (sc), vehicle: olive oil, sesame oil, peanut oil 108 % of control

Nc1ccccc1Oc1ccccc1
inactive: [5] 94 % of control | dose: 100.0 mg/kg/injection, schedule: Q04DX003 (ip), vehicle: Klucel (hydroxypropylcellulose) (HPC) 97 % of control | [6] 97 % of control | dose: 200.0 mg/kg/injection, schedule: Q04DX003 (ip), vehicle: Klucel (hydroxypropylcellulose) (HPC) 98 % of control | [7] 100 % of control | dose: 400.0 mg/kg/injection, schedule: Q04DX003 (ip), vehicle: Klucel (hydroxypropylcellulose) (HPC) 101 % of control

O=C1CCC/C1=C/c1ccco1
inactive: dose: 100.0 mg/kg/injection, schedule: Q04DX002 (ip), vehicle: saline with Tween-80 105 % of control | dose: 200.0 mg/kg/injection, schedule: Q04DX002 (ip), vehicle: saline with Tween-80 105 % of control | dose: 400.0 mg/kg/injection, schedule: Q04DX002 (ip), vehicle: saline with Tween-80 94 % of control

CC(C)OC(=O)Nc1ccccc1
inactive: [5] 93 % of control | [8] 102 % of control | [6] 93 % of control | [9] 112 % of control | [7] 110 % of control | [10] 115 % of control

O=C1C(NC2CCCCC2)=C(c2ccccc2)c2ccccc21
inactive: dose: 50.0 mg/kg/injection, schedule: Q01DX001 (ip), vehicle: Klucel (hydroxypropylcellulose) (HPC) 94 % of control | [11] 92 % of control | [12] 94 % of control

O=C(c1cccc(F)c1)C(F)(F)F
inactive: [5] 96 % of control | [6] 104 % of control | dose: 300.0 mg/kg/injection, schedule: Q01DX009 (ip), vehicle: Klucel (hydroxypropylcellulose) (HPC) 93 % of control

COc1ccc(Br)c([N+](=O)[O-])c1
inactive: [2] 103 % of control | [3] 97 % of control | [4] 103 % of control

O=C1CC(C(=O)Nc2ccccc2)C(c2ccccc2)(c2ccccc2)O1 (stereo not drawn)
inactive: dose: 100.0 mg/kg/injection, schedule: Q01DX001 (ip), vehicle: carboxymethylcellulose (CMC) 97 % of control | dose: 200.0 mg/kg/injection, schedule: Q01DX001 (ip), vehicle: carboxymethylcellulose (CMC) 106 % of control | dose: 400.0 mg/kg/injection, schedule: Q01DX001 (ip), vehicle: carboxymethylcellulose (CMC) 95 % of control

CC(SC(C)c1ccccc1)c1ccccc1 (stereo not drawn)
inactive: dose: 100.0 mg/kg/injection, schedule: Q01DX009 (ip), vehicle: saline with Tween-80 93 % of control | [13] 101 % of control | dose: 200.0 mg/kg/injection, schedule: Q01DX009 (ip), vehicle: saline with Tween-80 91 % of control | [14] 106 % of control | dose: 400.0 mg/kg/injection, schedule: Q04DX003 (ip), vehicle: saline with Tween-80 97 % of control

Cn1cnccc1=O
inactive: dose: 50.0 mg/kg/injection, schedule: Q01DX009 (ip), vehicle: water 102 % of control | dose: 100.0 mg/kg/injection, schedule: Q01DX009 (ip), vehicle: water 104 % of control | dose: 100.0 mg/kg/injection, schedule: Q04DX003 (ip), vehicle: water 114 % of control | dose: 120.0 mg/kg/injection, schedule: Q04DX003 (ip), vehicle: water 98 % of control | dose: 200.0 mg/kg/injection, schedule: Q01DX009 (ip), vehicle: water 115 % of control | dose: 200.0 mg/kg/injection, schedule: Q04DX003 (ip), vehicle: water 100 % of control and 111 % of control | dose: 333.0 mg/kg/injection, schedule: Q04DX003 (ip), vehicle: water 95 % of control | dose: 400.0 mg/kg/injection, schedule: Q01DX009 (ip), vehicle: water 115 % of control | dose: 400.0 mg/kg/injection, schedule: Q04DX003 (ip), vehicle: water 106 % of control

O=c1c2ccccc2oc2ccccc12
inactive: dose: 100.0 mg/kg/injection, schedule: Q01DX001 (ip), vehicle: saline with Tween-80 102 % of control | [13] 96 % of control | dose: 200.0 mg/kg/injection, schedule: Q01DX001 (ip), vehicle: saline with Tween-80 102 % of control | [14] 97 % of control | dose: 400.0 mg/kg/injection, schedule: Q01DX001 (ip), vehicle: saline with Tween-80 102 % of control

O=C1CCCN(c2ccccc2)c2ccccc21
inactive: dose: 100.0 mg/kg/injection, schedule: Q01DX009 (ip), vehicle: other 100 % of control | dose: 100.0 mg/kg/injection, schedule: Q04DX003 (ip), vehicle: other 98 % of control | dose: 200.0 mg/kg/injection, schedule: Q01DX009 (ip), vehicle: other 98 % of control | dose: 200.0 mg/kg/injection, schedule: Q04DX003 (ip), vehicle: other 109 % of control | dose: 400.0 mg/kg/injection, schedule: Q01DX009 (ip), vehicle: other 96 % of control | dose: 400.0 mg/kg/injection, schedule: Q04DX003 (ip), vehicle: other 104 % of control

COC(=O)CCC(NC(=O)C1CSC(C)(C)N1C=O)C(=O)OC (stereo not drawn)
inactive: [15] 104 % of control | [16] 101 % of control | [17] 101 % of control

O=S(=O)(O)CCCCO
inactive: [18] 98 % of control | [15] 95 % of control | [19] 95 % of control | [16] 100 % of control | [20] 95 % of control | [17] 97 % of control

CC1OCCCCO1
inactive: [1] 106 % of control | [2] 102 % of control | [18] 96 % of control and 112 % of control | dose: 100.0 mg/kg/injection, schedule: Q04DX002 (ip), vehicle: saline 108 % of control and 86 % of control | [3] 103 % of control | [19] 102 % of control and 108 % of control | dose: 200.0 mg/kg/injection, schedule: Q04DX002 (ip), vehicle: saline 93 % of control and 100 % of control | [20] 98 % of control and 112 % of control | dose: 400.0 mg/kg/injection, schedule: Q04DX002 (ip), vehicle: saline 93 % of control and 95 % of control

CC(C)(C)C(C)(O)CN (stereo not drawn)
inactive: [18] 95 % of control | [19] 95 % of control | [20] 95 % of control

CN(C)C(=S)S
inactive: [1] 100 % of control | dose: 50.0 mg/kg/injection, schedule: Q04DX002 (ip), vehicle: Klucel (hydroxypropylcellulose) (HPC) 103 % of control | [2] 100 % of control | [8] 103 % of control | [3] 100 % of control | [9] 100 % of control | [4] 100 % of control | [10] 96 % of control

COc1ccc2c(c1OC)C1(CCN(C)C#N)CCCCC1CC2 (stereo not drawn)
inactive: [11] 95 % of control | [12] 95 % of control | dose: 400.0 mg/kg/injection, schedule: Q01DX001 (ip), vehicle: Klucel (hydroxypropylcellulose) (HPC) 86 % of control

Cn1c(O)c(N=NC(N)=S)c2ccccc21
inactive: dose: 3.0 mg/kg/injection, schedule: Q01DX015 (ip), vehicle: carboxymethylcellulose (CMC) 96 % of control | dose: 6.0 mg/kg/injection, schedule: Q01DX015 (ip), vehicle: carboxymethylcellulose (CMC) 103 % of control | dose: 12.0 mg/kg/injection, schedule: Q01DX015 (ip), vehicle: carboxymethylcellulose (CMC) 97 % of control | dose: 25.0 mg/kg/injection, schedule: Q01DX015 (ip), vehicle: carboxymethylcellulose (CMC) 106 % of control | dose: 50.0 mg/kg/injection, schedule: Q01DX015 (ip), vehicle: carboxymethylcellulose (CMC) 103 % of control | dose: 62.5 mg/kg/injection, schedule: Q01DX015 (ip), vehicle: carboxymethylcellulose (CMC) 107 % of control
